The test system of one assay is GST-tagged FnbB. Briefly: Pull-down with GST-tagged FnbB, proteins from rabbit reticulocyte translation system. Type of assay: binding, S. aureus. As to conditions: cell-free protein translation system; GST alone as negative control.
For assay [1], the target named is T1, His-tagged ClfB protein (Staphylococcus aureus, UniProt Q99R07). The conditions noted are these: 5 μg spotted onto membrane, His-tag antibody detection. The method, then:
7.1. […] This peptide was also synthesized.
Peptides were spotted onto a protein binding membrane and incubated with recombinant His-tagged ClfB protein. The irreversibly bound peptides can be targeted by additionally added ClfB. Bound ClfB protein is detected by a His-tag specific antibody (see FIG. 7).

The target of assay [2] is T2, ClfB (Staphylococcus aureus, UniProt Q99R07). The conditions noted are these: Y2H-strain AH109, prey plasmid pGADT7.
Experimental: All constituents of this mini-library are tested directly in a binary manner against ClfB. • The identified interactions between ClfB and KRT6A, KRT8, and KRT5 (cf Table 1) were used for the experiment. • The interacting KRT-genes were compared in order to identify the plasmid harbouring the shortest KRT gene-fragment from the initial Y2H-screen. […] The clone with the smallest ClfB interacting DNA-insert is called clone clb10.1 • Clone clb10.1 was used as template for primer-design. PCR-primers were designed to lead to N-terminal truncations of the resulting protein. The clb10.1 DNA-template contains a 330 base pair DNA-fragment of the gene coding region of KRT8 (corresponds to a peptide of 110 amino acids). • The first primer-pair binds 45 bp downstream of the clb10.1 DNA-template resulting in a 45 by shortened DNA-fragment after PCR (the generated PCR-product contains a gene coding sequence of 285 bp). The resulting peptide encoded from this DNA is 95 amino acids. The PCR-product was cloned into an empty Y2H-prey plasmid, pGADT7. The plasmid was sequenced and the clone was named Frag1. • The second primer pair amplifies a PCR-product, which contains a gene coding sequence of 144 bp, which corresponds to a peptide of 48 amino acids. The PCR-product was cloned into an empty Y2H-prey plasmid, pGADT7. The plasmid was sequenced and the clone was named Frag2. • The third primer pair still amplifies the same gene coding sequence of KRT8, however the 3-primed untranslated region was removed. The 3-primed untranslated region is 241 bp long and not relevant for the interaction with ClfB protein. The removal of this 241 region was achieved by using a PCR-reverse primer, which binds upstream of this region in the DNA-template of clone 10.1. The resulting peptide, when translated from this PCR-product is still 48 amino acids. The PCR-product was cloned into an empty Y2H-prey plasmid, pGADT7. The plasmid was sequenced and the clone was named Frag2-CDS. • The fourth primer pair amplifies a PCR-product of 84 bp, which when translated into a protein will correspond to a peptide of 28 amino acids. The PCR-product was cloned into an empty Y2H-prey plasmid, pGADT7. The plasmid was sequenced and the clone was named Frag2-binding domain. • The fifth primer pair amplifies a PCR-product of 78 bp; when translated into a protein this fragment will correspond to a peptide of 26 amino acids. The PCR-product was cloned into an empty Y2H-prey plasmid, pGADT7. The plasmid was sequenced and the clone was named Frag3. • After PCR, the fragments were separated by gel-electrophoresis and the DNA was extracted from the gels by a commercial gel-extraction kit. The DNA was cut by restriction enzymes and cloned into the Y2H-plasmid pGADT7. The cloning reaction was introduced by plasmid transformation into E. coli. The transformation mixture was plated out onto plasmid-selective media containing the appropriate antibiotic. Growing colonies were inoculated into liquid media containing the same antibiotic, and the E. coli liquid culture was plasmid-purified and sequenced for confirmation. • Pure plasmid DNA from all constructs (Frag1, Frag2, Frag2-CDS, Frag2-binding domain, Frag3, clb10.1 clone, as well as full-length KRT6A, full-length KRT8, and full-length KRT5) were mixed to obtain a mini-library of different shortened fragments from the same interactor of ClfB.
Assay [3] has as its target T2, ClfB. Type of assay: cell-based, S. aureus. Also on record: expressed in transfected cells; host or cells: yeast Y2H reporter strain AH109. As to conditions: among 100 clones after two rounds of selection against ClfB.
Assay [4] has as its target binding of GST-tagged keratin fragment to ClfB-protein (Staphylococcus aureus, UniProt Q99R07). As to conditions: 1 μM peptide; densitometry, ImageJ. The source says: 7.2. […] Relative changes in pulled-down GST-tagged keratin fragment is quantified by densitometry using a flatbed scanner and the ImageJ software, provided by Wayne Rasband, National Institutes of Health. (ImageJ: http://rsb.info.nih.gov/ij/) See FIGS. 8 and 9

Another assay concerns living S. aureus cells. Put plainly: Adhesion assay with living S. aureus cells, crystal violet, absorbance at 595 nm. In kind it is cell-based. The conditions noted are these: 1 μg coated onto microwell-plates. As to the method: • All genes coding for the used recombinant proteins were cloned into the plasmid pDEST15. […] This protein served as negative control 1 • Affinity purified, recombinantly in E. coli produced GST-tagged Frag2-CDS (49 ng/μl). the amino acid sequence of Frag2-CDS is N-[…]-C (SEQ ID NO: 71) • Affinity purified, recombinantly in E. coli produced GST-tagged S. aureus protein, methionine sulfoxide reductase msrB, NCBI protein GI:54041496, was diluted to a final concentration of 30 ng/μl. This protein served as negative control 2 • Affinity purified, recombinantly in E. coli produced GST-tagged S. aureus protein, NADPH-dependent 7-cyano-7-deazaguanine reductase, NCBI protein GI:81781951, was diluted to a final concentration of 61 ng/μl. This protein served as negative control 3 • Human aortic elastin protein, 1 mg elastin was purchased from the company Elastin Products company, product number HA587 and solubilized in 1 ml H2O to get the final concentration of 1 μg/μl. This protein served as positive control 1 because elastin protein is known to bind to S. aureus. • Human fibrinogen protein was purchased from the company Enzyme Research Laboratories, product number FIB 1 3120L; […] was solubilized in 50 ml H2O to get the final concentration of 2 μg/μl. […]

Assay [5] addresses T3, activation domain of yeast protein GAL4 (Saccharomyces cerevisiae, UniProt P04386).
T3 construct: expressed in transfected cells; host or cells: yeast Y2H reporter strain AH109
Briefly: Y2H specificity test against activation domain of GAL4. In kind it is cell-based. The conditions noted are these: Y2H-strain AH109.

The target in assay [6] is T4, binding domain of yeast protein GAL4 (Saccharomyces cerevisiae, UniProt P04386).
T4 construct: expressed in transfected cells; host or cells: yeast Y2H reporter strain AH109
Briefly: Y2H specificity test against binding domain of GAL4. Type of assay: cell-based. As to conditions: Y2H-strain AH109.

In assay [7] the target is T5, Frag2-binding domain peptide (Homo sapiens, UniProt P05787).
T5 construct: expressed in transfected cells; host or cells: yeast Y2H reporter strain AH109
T5 sequence (P05787 437-464 limits assumed): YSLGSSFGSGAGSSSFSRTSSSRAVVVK
Briefly: Y2H test of peptide binding to the same peptide (homodimerization, stickiness). Type of assay: cell-based. The conditions noted are these: Y2H-strain AH109.

In assay [8] the target is T1, His-tagged ClfB protein. The conditions noted are these: detection with anti-GST antibodies; listed as GST-tagged Keratin 8 protein fragment. From the text:
(§1) 6.2.1. Recombinant Protein Production • The DNA-sequence coding for ClfB was cloned into a plasmid PET160 (a plasmid suitable for recombinant protein expression in E. coli and HIS-tag purification). The plasmid harbours a so-called HIS-tag, which is a DNA sequence coding for a stretch of six histidine residues. […]
(§2) 6.2.2. […] The GST-tagged peptide was purified by using a commercial GST-tag purification kit. • After several washing steps the remaining proteins are eluted from the magnetic beads • The eluted protein/peptide mixture is loaded on a SDS-page gel, separated, transferred onto a membrane, and probed with GST-tag specific antibodies and bound antibodies are detected by chemiluminescence signals on chemiluminescence films. • The following combinations of recombinant proteins/peptides were used in the pull-downs: • a) BSA+GST-tagged 48-aminoacid long peptide • b) His-tagged ClfB+GST-tagged 48-amino acid-peptide • c) Purified GST+GST-tagged 48-amino acid-peptide

The target of the next assay is BSA (Bos taurus, UniProt P02769). Briefly: In vitro pull-down with BSA coated beads. Type of assay: binding. The conditions noted are these: detection with anti-GST antibodies; listed as GST-tagged peptide of 48-amino acids.
Text: as §1, §2

A further assay deals with T6, GST (Schistosoma japonicum, UniProt P08515).
T6 construct: purchased
Briefly: In vitro pull-down with GST coated beads. Type of assay: binding. The conditions noted are these: detection with anti-GST antibodies; listed as GST-tagged peptide of 48-amino acids.
Text: as §1, §2

Assay [9] deals with T2, ClfB. The conditions noted are these: for Relative interaction strength to ClfB compared to the original binder: X-Gal overlay assays and growth strength on 3AT media, AH109 cells; for More beta galactosidase in comparison to the original binder: X-Gal overlay, equal numbers of cells.

Entries after “also recorded” stand apart in the source; their conditions may differ. Read-outs that look alike come from different tables or passages of the source. Where no end group is shown, it is not given here.

T1 sequence (Q99R07 45-841): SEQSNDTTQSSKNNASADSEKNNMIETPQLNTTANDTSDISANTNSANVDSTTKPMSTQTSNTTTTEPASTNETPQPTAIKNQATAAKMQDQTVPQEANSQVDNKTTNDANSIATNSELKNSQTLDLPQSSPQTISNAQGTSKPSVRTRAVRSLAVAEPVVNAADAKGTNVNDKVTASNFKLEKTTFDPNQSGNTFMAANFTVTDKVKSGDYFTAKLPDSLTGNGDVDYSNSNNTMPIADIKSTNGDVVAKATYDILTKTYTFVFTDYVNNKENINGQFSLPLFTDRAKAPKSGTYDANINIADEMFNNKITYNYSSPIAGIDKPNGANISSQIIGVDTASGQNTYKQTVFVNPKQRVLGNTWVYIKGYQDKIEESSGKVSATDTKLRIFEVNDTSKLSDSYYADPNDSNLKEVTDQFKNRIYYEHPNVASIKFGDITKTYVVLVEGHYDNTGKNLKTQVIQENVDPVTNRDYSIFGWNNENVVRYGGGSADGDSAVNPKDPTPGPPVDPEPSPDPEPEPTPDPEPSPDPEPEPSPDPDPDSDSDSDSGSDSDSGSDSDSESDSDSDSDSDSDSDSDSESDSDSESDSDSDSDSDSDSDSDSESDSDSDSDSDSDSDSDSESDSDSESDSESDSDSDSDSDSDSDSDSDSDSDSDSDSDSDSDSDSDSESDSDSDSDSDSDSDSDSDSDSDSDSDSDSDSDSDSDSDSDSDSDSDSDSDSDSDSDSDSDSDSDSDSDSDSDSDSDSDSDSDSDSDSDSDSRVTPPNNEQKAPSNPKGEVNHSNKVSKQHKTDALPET
T2 sequence (Q99R07 45-841): as above
T6 sequence (P08515 whole entry): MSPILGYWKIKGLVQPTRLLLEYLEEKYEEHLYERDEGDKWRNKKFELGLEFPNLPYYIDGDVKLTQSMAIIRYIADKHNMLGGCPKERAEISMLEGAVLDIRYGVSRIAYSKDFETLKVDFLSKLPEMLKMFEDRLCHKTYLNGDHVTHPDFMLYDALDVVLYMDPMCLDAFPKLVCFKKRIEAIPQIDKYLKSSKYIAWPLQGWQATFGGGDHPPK
binding of GST-tagged keratin fragment to ClfB-protein, sequence (Q99R07 45-841): as the sequence (Q99R07 45-841) above
T3 sequence (P04386 768-881): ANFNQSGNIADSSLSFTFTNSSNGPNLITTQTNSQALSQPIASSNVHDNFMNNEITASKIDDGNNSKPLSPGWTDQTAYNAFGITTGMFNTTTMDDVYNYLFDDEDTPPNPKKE
T4 sequence (P04386 11-38): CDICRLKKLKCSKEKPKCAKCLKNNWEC
Text for GST-tagged FnbB: Recombinant proteins were produced from the isolated plasmids from the PPI-partners in a rabbit reticulocyte-based translation system and additionally in E. coli cells. The produced recombinant proteins were used for pull-down and immunoprecipitation experiments.

As to “CCT—beta: human protein interacting with FnbB, NCBI Protein GI 2559012”, the “Co-purified with GST-tagged FnbB” value in the assay on GST-tagged FnbB was “could be co-purified”.
As for “EQRGELAIKDANAKLSELEAAL [control peptide, reference compound]”, on His-tagged ClfB protein [1], the “Binding of recombinant ClfB to spotted peptide” value (“Binding of recombinant ClfB” for short) is “no binding was detected”.
On to “QELMNVKLALDIEIATYRKLLEGEESRLESGMQNMSIHTKTTSGYAGGLSSAYGGLTSPGLSYSLGSSFGSGAGSSSFSRTSSSRAVVVKKIETRDGKLVSESSDVLPK [Clone 10.1]”, for which the “Interaction capable with ClfB in the Y2H-system” value (from here on “Interaction capable with ClfB”) on ClfB [2] is “Yes”. In addition, the “Identified X-times by sequencing” value on ClfB [3] is recorded as 8.
For RAVVVKKIETRDGKLVSESSDVLPK [Frag 3], the “Interaction capable with ClfB” value at ClfB [2] is “No”. For the same substance, the “Identified X-times by sequencing” value on ClfB [3] was 0; at ClfB [3] (listed as Frag3) it was “No single clone”.
As for SYSLGSSFGSGAGSSSFSRTS [IPEP-21SA], in the assay with His-tagged ClfB protein [1], the “Binding of recombinant ClfB” value is “could bind”. The “Competitive inhibition of binding of GST-tagged keratin fragment to ClfB-protein” value in [4] is given as approximately 40%. Further, the “Binding to living pathogen cells” value in the assay on living S. aureus cells was “binds strongly”.
Take “TYRKLLEGEESRLESGMQNMSIHTKTTSGYAGGLSSAYGGLTSPGLSYSLGSSFGSGAGSSSFSRTSSSRAVVVKKIETRDGKLVSESSDVLPK [Frag 1]”: the “Interaction capable with ClfB” value on ClfB [2] is given as “Yes”. For the same substance, at ClfB [3], the “Identified X-times by sequencing” value came to 12.
With “YSLGSSFGSGAGSSSFSRTSSSRAVVVK [Frag 2-binding domain]”, the “Interaction with the activation domain of GAL4 protein” value in [5] was “neither interacts”. Further, the “Interaction with the binding-domain of GAL4 protein” value in [6] is on record as “neither interacts”. In addition, the “Interaction of the peptide with itself” value in assay [7] is on record as “does not interact with itself”. The “Interaction capable with ClfB” value was “Yes” in the assay with ClfB [2] and “still capable of interaction; also recorded: does only interact with ClfB protein” with ClfB [2] (listed as Frag2-binding domain). The “Identified X-times by sequencing” value in the assay with ClfB [3] worked out at 18.
Take “YSLGSSFGSGAGSSSFSRTSSSRAVVVKKIETRDGKLVSESSDVLPK (also: fused to a dimerising Fc or GST (not shown)) [GST-tagged Frag2-CDS, Frag2-CDS peptide recombinantly produced in E. coli with N-terminally fused glutathione S-transferase]”: in the assay with His-tagged ClfB protein [8], the “Pulled down (co-purified) with His-tagged ClfB protein” value was “could only be pulled down when His-tagged recombinant ClfB was present”. In addition, the “Pulled down by BSA coated beads” value in the assay with BSA is “Neither BSA coated- nor GST coated magnetic beads could pull down; also recorded: neither a) BSA nor c) GST coated beads can pull-down”. For the same substance, the “Pulled down by GST coated beads” value with GST is recorded as “Neither BSA coated- nor GST coated magnetic beads could pull down; also recorded: neither a) BSA nor c) GST coated beads can pull-down”. The “Binding of recombinant ClfB” value in the assay with His-tagged ClfB protein [1] is recorded as “could bind”. Besides, the “Binding to living pathogen cells” value with living S. aureus cells is “binds strongly”.
As for “YSLGSSFGSGAGSSSFSRTSSSRAVVVKKIETRDGKLVSESSDVLPK [Frag 2-CDS]”, the “Interaction capable with ClfB” value at ClfB [2] is “Yes”. The “Identified X-times by sequencing” value on ClfB [3] and at ClfB [3] (listed as Frag2-CDS) was 28 throughout.
Regarding “YSLGSSFGSGAGSSSFSRTSSSRAVVVKKIETRDGKLVSESSDVLPK [Frag 2]”, the “Interaction capable with ClfB” value on ClfB [2] is given as “Yes”. Also, the “Identified X-times by sequencing” value on ClfB [3] worked out at 25.
As to “YSLGSSFGSGAGSSSLGRTSSSRAVVVK [stronger binder]”, on ClfB [9], the “Relative interaction strength to ClfB compared to the original binder” value was “binds with increased affinity” and the “More beta galactosidase in comparison to the original binder” value is on record as “at least 50%”.
As for “YSLGSSFGSGAGSSSSSRTSPSRAVVVK [more stronger binder]”, at ClfB [9], the “Relative interaction strength to ClfB compared to the original binder” value is “binds with increased strength” and the “More beta galactosidase in comparison to the original binder” value is not below 100%.
On to “lysosomal sialidase NEU 1: human protein interacting with FnbB, NCBI Protein GI 30583251”, for which the “Co-purified with GST-tagged FnbB” value with GST-tagged FnbB was “could be co-purified”.

The values are drawn from US20100216191A1, “Method for Manufacturing a Modified Peptide” (PROCOMCURE BIOTECH GMBH, priority 2007, published 2010).
